Results published in patent US8309760B2, “Process for purification of aryl carboxylic acids” (University of Alabama, priority 2007, dated 2012).
Where two headings read alike, the source gives them in different places.

Experiments:
[1] = cited from earlier work
[2] = format: physicochemical
Description: Examples illustrating the dissolution and aqueous reconstitution of terephthalic acid from ionic liquids follow the same general experimental protocol. However, it should be noted that the ionic liquids chosen are by far non-limiting examples of terephthalic acid dissolution in ionic liquids. To a vial containing 100 mg of an ionic liquid is added 10 mg of terephthalic acid and the mixture is heated to 75° C. to reduce the viscosity of the resulting liquid. The solution is stirred on a hot plate in an oil bath for 24 hours, whereupon the solutions are visually checked for dissolution. Aqueous reconstitution of the terephthalic acid is achieved by the addition of 500 mL deionized water (polished to 18.1-18.3 MΩ cm). Crystalline terephthalic acid separates from the ionic liquid as a flock, washed with copious amounts of deionized water and vacuum filtered, then dried in ambient conditions and ground with a spatula to give the desired crystalline terephthalic acid.

Row | Compound | solubility in water ([1]; no temperature given) | solubility in various ionic liquids [2] | solubility of terephthalic acid in water ([1]; temperature of about 300° C.) | solubility in water ([1]; temperatures below about 200° C.)
1 | O=Cc1ccc(C(=O)O)cc1 [4-Carboxybenzaldehyde, 4-carboxybenzaldehyde] | soluble | – | – | –
2 | O=C(O)c1ccc(C(=O)O)cc1 [terephthalic acid] | – | soluble | about 40% | insoluble
